The results in this text go back to US6465455B1, “Benzamide derivatives for the treatment of diseases mediated by cytokines” (AstraZeneca AB, priority 1998, dated 2002).

As for `CC(=O)Oc1ccc(C(=O)Nc2ccc(Cl)c(NC(=O)c3ccc(C#N)cc3)c2)cc1` [Example 14, N-[5-(4-acetoxybenzamido)-2-chlorophenyl]-4-cyanobenzamide], the melting point lay in the range of 195 to 196 °C. As to `COc1ccc(C(=O)Nc2cc(NC(=O)c3cccc(N4CCOCC4)c3)ccc2Cl)cc1OC` [Example 4, N-[2-chloro-5-(3-morpholinobenzamido)phenyl]-3,4-dimethoxybenzamide], the melting point was in the range of 147.9 to 148.3 °C.

The melting point is the temperature of the solid-liquid transition.
